Results: ChEMBL document CHEMBL2062445, “Synthesis and nicotinic receptor activity of chemical space analogues of N-(3R)-1-azabicyclo[2.2.2]oct-3-yl-4-chlorobenzamide (PNU-282,987) and 1,4-diazabicyclo[3.2.2]nonane-4-carboxylic acid 4-bromophenyl ester (SSR180711)” (J Med Chem, 2012)
The source made the active and inactive calls. No cut-off for these calls is given here.

Key:
[1] = molecular target: T1, Neuronal acetylcholine receptor subunit alpha-7 (Homo sapiens, UniProt P36544); assay: Antagonist activity at human alpha7 nAChR expressed in Xenopus oocyte assessed as inhibition of ACh-induced current at 10 uM after 30 secs by electrophysiological assay; type: functional
[2] = molecular target: T1, Neuronal acetylcholine receptor subunit alpha-7; assay: Agonist activity at human alpha7 nAChR expressed in Xenopus oocyte assessed as stimulation of ACh-induced current at 10 uM after 30 secs by electrophysiological assay; type: functional
[3] = molecular target: T1, Neuronal acetylcholine receptor subunit alpha-7; assay: Antagonist activity at human alpha7 nAChR expressed in Xenopus oocyte assessed as inhibition of ACh-induced current after 30 secs by electrophysiological assay; type: functional
[4] = molecular target: T2, Neuronal acetylcholine receptor; alpha3/beta2 (Homo sapiens) (UniProt P17787+P32297); assay: Positive allosteric modulation at human recombinant alpha3beta 2 nAChR expressed in Xenopus oocyte assessed as inhibition of ACh-induced current at 100 uM after 30 secs by electrophysiological assay
[5] = molecular target: T2, Neuronal acetylcholine receptor; alpha3/beta2 (Homo sapiens); assay: Positive allosteric modulation at human recombinant alpha3beta 2 nAChR expressed in Xenopus oocyte assessed as stimulation of ACh-induced current at 10 uM after 30 secs by electrophysiological assay
[6] = molecular target: T1, Neuronal acetylcholine receptor subunit alpha-7; assay: Partial agonist activity at human alpha7 nAChR expressed in Xenopus oocyte assessed as stimulation of ACh-induced current after 30 secs by electrophysiological assay; type: functional
[7] = molecular target: T2, Neuronal acetylcholine receptor; alpha3/beta2 (Homo sapiens); assay: Negative allosteric modulation at human recombinant alpha3beta 2 nAChR expressed in Xenopus oocyte assessed as inhibition of ACh-induced current at 100 uM after 30 secs by electrophysiological assay

T1 sequence (P36544 whole entry): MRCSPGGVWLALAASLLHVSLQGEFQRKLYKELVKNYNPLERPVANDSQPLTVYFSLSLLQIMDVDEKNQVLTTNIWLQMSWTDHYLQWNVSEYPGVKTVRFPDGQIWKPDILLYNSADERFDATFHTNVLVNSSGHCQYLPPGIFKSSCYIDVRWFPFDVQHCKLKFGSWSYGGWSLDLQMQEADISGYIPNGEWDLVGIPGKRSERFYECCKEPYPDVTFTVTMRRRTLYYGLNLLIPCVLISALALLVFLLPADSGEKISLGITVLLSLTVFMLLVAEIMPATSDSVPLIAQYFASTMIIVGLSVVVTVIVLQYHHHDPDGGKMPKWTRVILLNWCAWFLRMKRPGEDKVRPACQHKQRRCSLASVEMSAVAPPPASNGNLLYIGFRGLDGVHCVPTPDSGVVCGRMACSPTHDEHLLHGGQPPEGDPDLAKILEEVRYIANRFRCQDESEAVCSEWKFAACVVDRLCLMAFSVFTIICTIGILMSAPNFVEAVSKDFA

SMILES	inhibition [1] [%]	Activity [2]	further results
CN1CC2CCC1C(CNC(=O)c1ccccc1)C2 (racemic; form 1)	68		
O=C(NCC1=CC2CCN1CC2)c1ccc(Cl)cc1	50	inactive	
O=C(Oc1ccc(Br)cc1)N1CCCN2CCC[C@@H]2C1	36	inactive	
CCC#CCN1CCC[C@H]1CNC(=O)c1ccc2ncsc2c1	88	inactive	IC50 [3]: 45 µM
CN1CC2CCC1C(CNC(=O)c1ccc(Cl)cc1)C2 (racemic; form 2)	61	inactive	
O=C(NCC1=CC2CCN1CC2)c1ccc(Br)cc1	30	inactive	
CC1CCCC1N1CC[C@H](NC(=O)c2ccc(Cl)cc2)C1 (stereo partly drawn)	33		
CC(C)N1CCCCN(C(=O)c2ccc3ncsc3c2)CC1	40		
O=C(N[C@@H]1CCCC[C@H]1N1CCCCC1)Oc1ccc(Br)cc1 (racemic)	34		IC50 [3]: 10 µM
CC(C)N1CCCCN(C(=O)c2ccc(Cl)cc2)CC1	35		
CCC#CCN1CCC[C@@H]1CNC(=O)C1COc2ccccc2O1 (stereo partly drawn)	74		
CN1CC2CCC1C(CNC(=O)c1ccc(F)cc1)C2 (racemic; form 1)	52		
O=C(NCC12CCCN1CCC2)C1COc2ccccc2O1 (stereo not drawn)	29		
CC1CCCC1N1CC[C@H](NC(=O)c2ccc3ncsc3c2)C1 (stereo partly drawn)	20		IC50 [3]: 5 µM
O=C(NCC1=CC2CCN1CC2)Oc1ccc(Br)cc1	100	inactive	
O=C(NCC12CCCN1CCC2)c1ccc2ncsc2c1	34		
Cc1ccc(C(=O)NCC23CCCN2CCC3)cc1	25		
CC(C)N1CCCCN(C(=O)c2ccc3c(c2)OCCO3)CC1	25		IC50 [3]: 6.9 µM
CC(C)N1CCCN(C(=O)c2ccc3c(c2)OCCO3)CC1		inactive	
CCC#CCN1CCC[C@H]1COC(=O)c1ccc2ncsc2c1	60	inactive	
O=C(NCC1CC2CCN1CC2)c1ccc2c(c1)OCCO2 (racemic)	79		

SMILES	inhibition [1] [%]	Activity [2]	further results
O=C(N[C@H]1CCN(C2CCCCC2)C1)c1ccc2ncsc2c1	56	inactive	
CC1CCCC1N1CCC(NC(=O)c2ccc3ncsc3c2)CC1 (stereo not drawn)	65	inactive	
CC(C)N1CCN(C(=O)Oc2ccc(Br)cc2)CC1	82		
CN1CC2CCC1C(CNC(=O)c1ccc3c(c1)OCCO3)C2 (racemic; form 2)	77	inactive	
O=C(c1ccc(Cl)cc1)N1CCCN2CCC[C@H]2C1	57		
CN1CC2CCC1C(CNC(=O)c1ccc(F)cc1)C2 (racemic; form 2)	55	inactive	
O=C(c1ccccc1)N1CCCN2CCC[C@@H]2C1	55	inactive	
CC(C)N1CCC[C@@H]1CNC(=O)Oc1ccc(Br)cc1	27	inactive	
O=C(NCC1CC2CCN1CC2)c1ccc(F)cc1 (racemic)	84		Activity [4]: Active; Activity [5]: Active
CC(C)N1CCN(C(=O)c2ccc3c(c2)OCCO3)CC1	81		
CN(C)CCNC(=O)c1ccc(Cl)cc1	68		
CCC#CCN1CCC[C@@H]1CNC(=O)c1ccc2ncsc2c1	13		IC50 [3]: 40 µM
O=C(Oc1ccc(Br)cc1)N1CCN2CCC1CC2			Activity [6]: Active
O=C(c1ccc(Br)cc1)N1CCCN2CCC[C@@H]2C1	40	inactive	
CC(C)N1CCN(C(=O)C2COc3ccccc3O2)CC1 (stereo not drawn)	90		
O=C(c1ccc2c(c1)OCCO2)N1CCCN2CCC[C@H]2C1	56		
O=C(NCC12CCCN1CCC2)c1ccccc1	26		Activity [7]: Active; Activity [5]: Active
O=C(C1COc2ccccc2O1)N1CCCN2CCC[C@H]2C1 (stereo partly drawn)	54		
CN1CC2CCC1C(CNC(=O)c1ccccc1)C2 (racemic; form 2)	54	inactive	
CC(C)N1CCN(C(=O)c2ccc3ncsc3c2)CC1	85		
O=C(NCC1CC2CCN1CC2)Oc1ccc(Br)cc1 (racemic)	80		

SMILES	inhibition [1] [%]	Activity [2]	further results
CN1CC2CCC1C(CNC(=O)c1ccc3c(c1)OCCO3)C2 (racemic; form 1)	81		
C[C@H]1CN2CCCC[C@@H]2CN1C(=O)c1ccc2c(c1)OCCO2	75		
O=C(NCC12CCCN1CCC2)c1ccc2c(c1)OCCO2	33		
CN1CC2CCC1C(CNC(=O)c1ccc(Cl)cc1)C2 (racemic; form 1)	60		
O=C(NCC1CC2CCN1CC2)c1ccccc1 (racemic)	53		
O=C(NC[C@H]1CCCN1C1CCCCC1)c1ccc2ncsc2c1	71	inactive	
O=C(NCC12CCCN1CCC2)c1ccc(Cl)cc1	32		Activity [7]: Active; Activity [5]: Active
C[C@H]1CN2CCCC[C@@H]2CN1C(=O)c1ccc2ncsc2c1 (racemic)	61		
CCN1CC[C@H](NC(=O)c2ccc3ncsc3c2)C1	139	inactive	
CCN1CCC[C@@H]1CNC(=O)c1ccc(Cl)cc1	42	inactive	
O=C(c1ccc2ncsc2c1)N1CCCN2CCC[C@H]2C1	53		
CN1CC2CCC1C(CNC(=O)c1ccc(Br)cc1)C2 (racemic; form 1)	71		
CCCC#CCN1CC[C@H](NC(=O)c2ccc3ncsc3c2)C1	81	inactive	
O=C(NCC12CCCN1CCC2)c1ccccc1Cl	35		
O=C(NCC12CCCN1CCC2)c1ccc(Br)cc1	9		
O=C(c1ccc2c(c1)OCCO2)N1CCCN2CCC[C@@H]2C1	40	inactive	
CN(C)CCNC(=O)c1ccc2ncsc2c1	94		
CCN1CCC[C@@H]1CNC(=O)Oc1ccc(Br)cc1	53	inactive	
O=C(NCC1=CC2CCN1CC2)c1ccc(F)cc1	36	inactive	
O=C(NCC1=CC2CCN1CC2)c1ccccc1	35	inactive	
O=C(Oc1ccc(Br)cc1)N1CCCN2CCC[C@H]2C1	62		

SMILES	inhibition [1] [%]	Activity [2]	further results
CC(C)N1C[C@H]2C[C@@H]1CN2C(=O)c1ccc(Cl)cc1	69	inactive	
CN(C)CCNC(=O)c1ccc2c(c1)OCCO2	87		
CCC#CCN1CCC[C@@H]1CNC(=O)Oc1ccc(Br)cc1	72		
O=C(NCC12CCCN1CCC2)c1cccc(Cl)c1	32		
O=C(N[C@H]1CCN(Cc2ccccc2)C1)c1ccc2ncsc2c1	94	inactive	
O=C(c1ccc(F)cc1)N1CCCN2CCC[C@@H]2C1	58	inactive	
CN(C)CCNC(=O)C1COc2ccccc2O1 (stereo not drawn)	52		
O=C(NCC1=CC2CCN1CC2)c1ccc2c(c1)OCCO2	50	inactive	
CN1CCC2CC1CN(C(=O)Oc1ccc(Br)cc1)C2 (racemic)			Activity [7]: Active; Activity [5]: Active
C[C@H]1CN2CCCC[C@@H]2CN1C(=O)c1ccc(Cl)cc1	65		
CC(C)N1CCCCN(C(=O)C2COc3ccccc3O2)CC1 (stereo not drawn)	37		
CCCN1CCC[C@@H]1CNC(=O)c1ccc(F)cc1	22	inactive	
CCC#CCN1CCC[C@@H]1CNC(=O)c1ccc2c(c1)OCCO2	96		
CCC#CCN1CCC[C@@H]1CNC(=O)c1ccc(Cl)cc1	21		
O=C(N[C@@H]1CCN(Cc2ccccc2)C1)c1ccc2ncsc2c1	59		
CN1CC2CCC1C(CNC(=O)c1ccc(Br)cc1)C2 (racemic; form 2)	66	inactive	
CC(C)N1CCN(C(=O)c2ccc(Cl)cc2)CC1	84		
CCN1CCC[C@@H]1CNC(=O)c1ccc2ncsc2c1	53	inactive	
